Measured values as given in US11987808B2, “Method of human periferic sensory neurons differenciation from human stem cells and uses thereof” (L'OREAL, priority 2017, dated 2024).
Entries after “also recorded” stand apart in the source; their conditions may differ.

Experiments:
[1] = tested on: TRPV1; conditions: Zygmunt et al. 1999; cited from earlier work
[2] = tested on: hiPS cells derived sensory neurons (TRPV1 activity / substance P release); assay: Substance P release (ELISA) from hiPSC-derived sensory neurons after treatment with TRPV1 agonists and antagonists; format: cell-based, human
Description: Substance P release measured in the supernatant of sensory neurons culture after incubating 1 h at 37° C. in the presence of ligands. CAP: capsaicin; CPZ: capsazepine; RR: ruthenium red; AEA: anandamide (10 μM); KCl: high potassium solution (70 mM).
Substance P (SP) levels were determined using a commercially available ELISA kit (Cayman), following the manufacturer's instructions. Sensory neurons were cultured in a culture vessel in 24-well culture vessels at high confluence. After 24 h, cells were rinsed with fluorimetry buffer and incubated with different concentrations of agonists of TRPV1 for 45 minutes in the same buffer. When an antagonist was used, it was applied 15 minutes before, then the solution was changed to agonist plus antagonist. Subsequently, the supernatants were collected and immediately used with the ELISA kit. All experiments were performed in triplicate and absorbance levels were measured in a microculture vessel reader.
PSNs respond to irritants, such as capsaicin, via release of neuropeptides at the epidermal end and glutamate and neuropeptides in the dorsal horn of the medulla (Basbaum et al., Cellular and molecular mechanisms of pain. Cell. 2009; 139:267-284). To verify if the sensory neurons were functional with respect to neuropeptide release, after D33 they were plated onto 24-well plates and treated 10 days with HEKn conditioned medium.

[3] = tested on: human skin fibroblasts; conditions: Kim et al. 2006; cited from earlier work
[4] = tested on: cultured human epidermal keratinocytes; conditions: Inoue et al. 2002; cited from earlier work
[5] = tested on: TRPV1 in hiPS cells derived sensory neurons; assay: Calcium release assay (Fura-2 imaging) in hiPS cells derived sensory neurons; format: cell-based, human; conditions: Fura-2 340/380 nm, capsaicin 100 nM in FIG. 5
Description: Phase contrast image for cell localization (a) fluorescence image of basal calcium levels (b). Calcium responses in sensory neurons after 100 nM capsaicin (c) and 70 mM KCL treatment (d). Calcium imaging of sensory neurons with conversion of Fura-2 excitation ratio (340/380 nm) to pseudo color, according to the scale on the left of each image. Arrows indicate active cells.
Neurons were cultured in a culture vessel onto PLO and Laminin-treated coverslips (where they were treated with HEKn conditioned medium for 10 days. On the day of the experiment, the medium was removed and cells were incubated with fresh medium (without factors) containing 5 μM Fura-2 AM (Molecular Probes) and 0.04% pluronic acid for one hour at 37° C. Then this solution was replaced with fluorimetry buffer, composed of (in mM): 145 NaCl, 5 KCl, 1.2 NaHPO4, 1.5 CaCl2, 10 D-glucose, 5 HEPES pH 7.4. If an antagonist was used, it was added to this solution at this time. After 30 minutes at 37° C., the coverslips were taken to an inverted microscope (Nikon) equipped with a CCD Camera (Orca, Hamamatsu Photonics) and Lambda DG-4 light source (Sutter Instrument). The images were acquired every 500 milliseconds via MetaFluor software (Molecular Probes) and the levels of fluorescence were represented in pseudo-color. […]

CCCCC/C=C\C/C=C\C/C=C\C/C=C\CCCC(=O)NCCO [anandamide]
EC50 at TRPV1 compared with CB1 [1]: an order of magnitude higher
Substance P release ([2]; anandamide 10 μM): evoked the highest substance P release; also recorded: caused a release of substance P
Substance P release, increase compared to control ([2]; anandamide 10 μM, supernatant of sensory neurons culture after 1 h at 37° C.): 887%

COc1cc(CNC(=O)CCCC/C=C/C(C)C)ccc1O [capsaicin]
Membrane current and intracellular calcium level [3]: induced significant changes in the membrane current and the intracellular calcium level
Substance P release relative to basal level ([2]; capsaicin 300 nM, neurons treated 10 days with HEKn conditioned medium): triple that amount
Substance P release ([2]; capsaicin 3 μM): did not show increased release
Intracellular calcium concentration [4]: produced elevations in the intracellular calcium concentration
Calcium increases mediated by TRPV1 activation (calcium signals) [5]: modest
Calcium increases mediated by TRPV1 activation (calcium signals) ([5]; listed as Capsaicin): activity could be detected

Oc1cc2c(cc1O)CN(C(=S)NCCc1ccc(Cl)cc1)CCC2 [capsazepine]
Antagonism of capsaicin-induced changes [3]: antagonized
Block of capsaicin-induced substance P release ([2]; co-treatment with capsazepine 1 μM, capsaicin 300 nM): efficiently blocked
Inhibition of capsaicin-/acidification-induced calcium increases [4]: inhibited

[Cl-].[K+] [high potassium solution]
Substance P release ([2]; high potassium solution 70 mM): substance P release equivalent to capsaicin 300 r1M

N.N.N.N.N.N.N.N.N.N.N.N.N.N.[Cl-].[Cl-].[Cl-].[Cl-].[Cl-].[Cl-].[O-2].[O-2].[Ru+3].[Ru+3].[Ru+4] [ruthenium red]
Substance P release relative to basal levels ([2]; pre-incubation with ruthenium red 10 μM followed by capsaicin 3 μM): seemed to decrease substance P release below basal levels
